Key:
[1] = system: Pseudomonas aeruginosa ATCC 27853; assay: Time-killing assay (bactericidal activity of new formulations), CFU count; assay type: cell-based; settings: CLX 0.000106%, AMP 2041 0.5 μg/ml, TRIS-EDTA 0.1% alone or 0.476%-0.126% in triple combination; for Δ (change of CFU count) at T0 / CFU count at T0: T0 = 0 min; for CFU count at T0 / CFU count at T0.5 / CFU count at T1 / CFU count at T3 / CFU count at T5 / CFU count at T10: CC 600; for Δ (change of CFU count) at T0.5 / CFU count at T0.5: T0.5 = 0.5 min; for Δ (change of CFU count) at T1 / CFU count at T1: T1 = 1 min; for Δ (change of CFU count) at T3 / CFU count at T3: T3 (footnote: T2.5 = 2.5 min); for Δ (change of CFU count) at T5 / CFU count at T5: T5 = 5 min; for Δ (change of CFU count) at T10 / CFU count at T10: T10 = 10 min
Experimental: The tubes are vortexed and incubated at 37° C. with stirring at 225 rpm for 3-4 hours, until achieving a required degree of turbidity, greater than or equal to 0.5 of the Mc Farland scale. Thereafter, the bacterial suspension is centrifuged at 1000 rpm for 20 minutes. The resulting pellet of bacteria is resuspended in 10mM PB. The turbidity is adjusted with the same buffer solution and checked by measuring the absorbance of the suspension at the spectrophotometer. The absorbance is considered equal to 0.5 of the Mc Farland scale when the optical density at 600 nm is between 0:08-0:13. At this value, the bacterial suspension contains approximately 10^8UFC/ml. Two hundred microliters of the assessed and adjusted bacterial suspension are added to 19.8 ml of 10 mM PB to obtain a final dilution of 1:100. Then, within a thirty minutes, 0:05 ml of this suspension (10^6UFC/ml) are inoculated into each well of an ELISA plate to obtain a final concentration of bacteria of about 5×10^5UFC/ml. […] Thereafter, each sample is serially diluted in PBS (pH 7.4) and 50 μl are plated on LB agar and the plates incubated at 37° C. for 24 hours for the count of CFU. The sterility control (100 μl PBS in place of the bacterial suspension) and the control in the absence of the new formulation are set up. The test is also carried out in the presence of 0.3% and 3.0% (w/v) BSA to simulate a paraphysiological environment. All experiments were repeated in triplicate.

[2] = system: Staphylococcus aureus ATCC 25923; assay: as above; assay type: cell-based; settings: CLX 0.000106%, AMP 2041 0.5 μg/ml; for Δ (change of CFU count) at T0 / CFU count at T0: T0 = 0 min; for CFU count at T0 / CFU count at T0.5 / CFU count at T1 / CFU count at T3 / CFU count at T5 / CFU count at T10: CC 600; for Δ (change of CFU count) at T0.5 / CFU count at T0.5: T0.5 = 0.5 min; for Δ (change of CFU count) at T1 / CFU count at T1: T1 = 1 min; for Δ (change of CFU count) at T3 / CFU count at T3: T3 (footnote: T2.5 = 2.5 min); for Δ (change of CFU count) at T5 / CFU count at T5: T5 = 5 min; for Δ (change of CFU count) at T10 / CFU count at T10: T10 = 10 min
Experimental: For each strain of reference, three to five morphologically similar colonies are selected from blood agar plates and inoculated into tubes containing 6 ml of Brain Heart Infusion broth (DIFCO, USA).
The tubes are vortexed and incubated at 37° C. with stirring at 225 rpm for 3-4 hours, until achieving a required degree of turbidity, greater than or equal to 0.5 of the Mc Farland scale.
Thereafter, the bacterial suspension is centrifuged at 1000 rpm for 20 minutes. The resulting pellet of bacteria is resuspended in 10mM PB. The turbidity is adjusted with the same buffer solution and checked by measuring the absorbance of the suspension at the spectrophotometer. The absorbance is considered equal to 0.5 of the Mc Farland scale when the optical density at 600 nm is between 0:08-0:13. At this value, the bacterial suspension contains approximately 10^8UFC/ml. Two hundred microliters of the assessed and adjusted bacterial suspension are added to 19.8 ml of 10 mM PB to obtain a final dilution of 1:100. Then, within a thirty minutes, 0:05 ml of this suspension (10^6UFC/ml) are inoculated into each well of an ELISA plate to obtain a final concentration of bacteria of about 5×10^5UFC/ml.
The time-killing assay was carried out to evaluate the bactericidal effects of the new formulations, using a modified quantitative test of the European standards EN1040 and EN1276. 100 μl of the bacterial suspension are added to 900 μl of the new formulation and aliquots of 50 μl of the mixture are subjected to assay at 0.5, 1, 2.5, 5, 10, 20, 30, 60, 90 and 120 min., respectively. 450 μl of neutralizing solution are added to each sample and left to act at room temperature for 3 minutes. Thereafter, each sample is serially diluted in PBS (pH 7.4) and 50 μl are plated on LB agar and the plates incubated at 37° C. for 24 hours for the count of CFU. The sterility control (100 μl PBS in place of the bacterial suspension) and the control in the absence of the new formulation are set up. The test is also carried out in the presence of 0.3% and 3.0% (w/v) BSA to simulate a paraphysiological environment. All experiments were repeated in triplicate.

Compound | Δ (change of CFU count) at T0 [1] | CFU count at T0 [1] | Δ (change of CFU count) at T0.5 [1] | CFU count at T0.5 [1] | Δ (change of CFU count) at T1 [1] | CFU count at T1 [1] | Δ (change of CFU count) at T3 [1] | CFU count at T3 [1] | Δ (change of CFU count) at T5 [1] | CFU count at T5 [1] | Δ (change of CFU count) at T10 [1] | CFU count at T10 [1] | Δ (change of CFU count) at T0 [2] | CFU count at T0 [2] | Δ (change of CFU count) at T0.5 [2] | CFU count at T0.5 [2] | Δ (change of CFU count) at T1 [2] | CFU count at T1 [2] | Δ (change of CFU count) at T3 [2] | CFU count at T3 [2] | further results
AMP 2041: peptide named AMP2041 (SEQ.ID. No.1), synthesized by SelleckChem (HKCAKIKWRGVHVKYCA) | Δ = 0% | 600 | Δ = 0% | 600 | Δ = 0% | 600 | Δ = 0% | 600 | Δ = 0% | 600 | Δ = 0% | 600 | Δ = 0% | 600 | Δ = 0% | 600 | Δ = 0% | 600 | Δ = 0% | 600 | Δ (change of CFU count) at T5 [2]: Δ = 0%; CFU count at T5 [2]: 600; Δ (change of CFU count) at T10 [2]: Δ = 0%; CFU count at T10 [2]: 600
[H]/N=C(\N/C(=N/[H])NCCCCCCNC(=N)NC(=N)Nc1ccc(Cl)cc1)Nc1ccc(Cl)cc1 [CLX, chlorhexidine] | Δ = 0% | 600 | Δ = 0% | 600 | Δ = 0% | 600 | Δ = 0% | 600 | Δ = 0% | 600 | Δ = 0% | 600 | Δ = 0% | 600 | Δ = 0% | 600 | Δ = 0% | 600 | Δ = 0% | 600 | Δ (change of CFU count) at T5 [2]: Δ = 0%; CFU count at T5 [2]: 600; Δ (change of CFU count) at T10 [2]: Δ = 0%; CFU count at T10 [2]: 600
